Source: US20140186869A1, “METHOD FOR INHIBITING PROTEASE IN BIOLOGICAL SAMPLE CONTAINING PANCREATIC JUICE COMPONENTS” (OLYMPUS CORPORATION, priority 2011, published 2014)
Where two headings read alike, the source gives them in different places.

What was measured:
[1] = tested on: protease present in pancreatic juice; experiment: Protease activity (fluorescent-labeled casein, same manner as Example 1) in pancreatic juice specimens; type: biochemical; details: pancreatin and two pancreatic juice specimens, 1 mM PMSF, 4 mM AEBSF; for protease inhibitory effects against protease present in pancreatic juice: Example 4, 5 mM p-APMSF, 100 μl TLCK, 100 μM TPCK, FIG. 5; for protease inhibitory effect (fluorescence = degraded amount of casein): Example 3, 0.3 μM aprotinin, 50 μM leupeptin, FIG. 4
Experimental: After adding each protease inhibitor cocktail so that the final concentration thereof was equal to manufacturer's recommended concentration (1×) or a concentration equal to 5 times the recommended concentration (5×), protease activity was measured using a simulated artificial pancreatic juice in the form of “pancreatin”, a digestive enzyme produced from porcine pancreas in which pancreatic enzymes are present in an activated state. Protease activity was measured using EnzCheck Protease Assay Kits (Molecular Probes). […] In addition, a sample solution in which fluorescent-labeled casein was added directly to pancreatin (inhibitor (−), DMSO (−)), a sample solution in which DMSO was added to pancreatin so that the added amount of DMSO was the same as in the case of adding each protease inhibitor cocktail at the manufacturer's recommended concentration (1×) (inhibitor (−), DMSO 1×), and a sample solution in which DMSO was added to pancreatin so that the added amount of DMSO was the same as in the case of adding each protease inhibitor cocktail at a concentration equal to five times the manufacturer's recommended concentration (5×) (inhibitor (−), DMSO 5×) were prepared for use as controls, and these sample solutions were measured for protease activity in the same manner as the protease inhibitor cocktails.
There are four types of serine protease inhibitors contained in Protease Inhibitor Mix (GE) consisting of aprotinin, leupeptin, PMSF and AEBSF (concentrations are not disclosed). Therefore, protease activity was measured in the same manner as Example 1 using pancreatin and two types of pancreatic juice specimens for 15 combinations of the four types of inhibitors prepared so that the final concentration was equal to the maximum recommended concentration for each protease inhibitor alone. Furthermore, the maximum recommended concentrations consisted of 0.3 μM for aprotinin (Roche), 50 μM for leupeptin (Roche), 1 mM for PMSF (Roche) and 4 mM for AEBSF (Roche). In addition, protease activity was also measured in the same manner for a sample solution to which protease inhibitor was not added (Control Sample Solution 1), a sample solution containing the recommended concentration of Inhibitor Cocktail 1 (Complete, Roche) (Control Sample Solution 2), a sample solution containing Inhibitor Cocktail 1 at 5 times the recommended concentration (5×) (Control Sample Solution 3), a sample solution containing the recommended concentration of Inhibitor Cocktail 4 (Protease Inhibitor Mix, GE) (Control Sample Solution 4), and a sample solution containing Inhibitor Cocktail 4 at five times the recommended concentration (5×) (Control Sample Solution 5).
More specifically, a sample solution obtained by adding 1 mM PMSF and 4 mM AEBSF, a sample solution obtained by adding 1 mM PMSF, a sample solution obtained by adding 4 mM AEBSF, a sample solution obtained by adding 5 mM p-APMSF, a sample solution obtained by adding […] TLCK and a sample solution obtained by adding 100 μM TPCK were prepared for use as protease inhibitors, and the protease activity of each sample solution was measured in the same manner as Example 1 using pancreatin and two types of pancreatic juice specimens. In addition, the protease activities of a sample solution to which protease inhibitor was not added (inhibitor (−)), a sample solution containing Inhibitor Cocktail 1 at the recommended concentration (Complete, Roche), a sample solution containing Inhibitor Cocktail 1 at 5 times the recommended concentration (5×), a sample solution containing Inhibitor Cocktail 4 at the recommended concentration (Protease Inhibitor Mix, GE), and a sample solution containing Inhibitor Cocktail 4 at five times the recommended concentration (5×) were also measured in the same manner.

[2] = tested on: protease present in pancreatic juice; experiment: as above; type: biochemical; details: for concentration at which high levels of protease inhibitory effects against protease present in pancreatic juice are obtained: Example 7, pancreatin and two pancreatic juice specimens, various final concentrations, FIGS. 9-11
[3] = tested on: protease in duodenal juice specimens; experiment: Protease activity (fluorescent-labeled casein) in duodenal juice specimens; type: biochemical; details: Example 9; four duodenal juice specimens; 1 mM PMSF + 4 mM AEBSF plus 0.3 mM Aprotinin or 1 mM TLCK; FIG. 14
Experimental: After adding each protease inhibitor cocktail so that the final concentration thereof was equal to manufacturer's recommended concentration (1×) or a concentration equal to 5 times the recommended concentration (5×), protease activity was measured using a simulated artificial pancreatic juice in the form of “pancreatin”, a digestive enzyme produced from porcine pancreas in which pancreatic enzymes are present in an activated state. Protease activity was measured using EnzCheck Protease Assay Kits (Molecular Probes). More specifically, fluorescent-labeled casein provided with the kits was added to a pancreatin solution to which each protease inhibitor cocktail had been added, and after incubating for 2 hours at 37° C., fluorescence was measured at a fluorescence wavelength of Ex/Em=485/535 nm. […]
More specifically, a sample solution obtained by adding 1 mM PMSF and 4 mM AEBSF, a sample solution obtained by adding 1 mM PMSF, 4 mM AEBSF and 0.3 mM Aprotinin, and a sample solution obtained by adding 1 mM PMSF, 4 mM AEBSF and 1 mM TLCK were prepared as protease inhibitors, and the protease activity of each sample solution was measured in the same manner as Example 1 using four types of duodenal juice specimens. The protease activity of a sample solution to which protease inhibitor was not added (Inhibitor (−)) was also measured in the same manner as a control.

[4] = tested on: pancreatin (simulated artificial pancreatic juice; pancreatic enzymes in an activated state); experiment: Protease activity, EnzCheck Protease Assay Kits (fluorescent-labeled casein), in pancreatin solution; type: biochemical, porcine; details: Example 5; 0.0003 mM to 0.3 mM Aprotinin; FIGS. 6 and 7
Experimental: […] 5 times the recommended concentration (5×), protease activity was measured using a simulated artificial pancreatic juice in the form of “pancreatin”, a digestive enzyme produced from porcine pancreas in which pancreatic enzymes are present in an activated state. Protease activity was measured using EnzCheck Protease Assay Kits (Molecular Probes). More specifically, fluorescent-labeled casein provided with the kits was added to a pancreatin solution to which each protease inhibitor cocktail had been added, and after incubating for 2 hours at 37° C., fluorescence was measured at a fluorescence wavelength of Ex/Em=485/535 nm. […]
Fluorescence plotted on the vertical axis represents the degraded amount of casein, and that value was estimated to be the value of protease activity.

[5] = Example 5, pancreatic juice specimens, 10-50 μm Elastase Inhibitor I, 1-10 mM EDTA, 0.0003-0.3 mM Aprotinin, 0.005-5 mM Leupeptin, 0.01-1 mM TLCK or TPCK, FIGS. 6 and 7

## NCCc1ccc(S(=O)(=O)F)cc1 [AEBSF, 4-(2-aminoethyl)-benzenesulfonyl fluoride]
[1]
  protease inhibitory effects against protease present in pancreatic juice: high levels of protease inhibitory effects
[2]
  concentration at which high levels of protease inhibitory effects against protease present in pancreatic juice are obtained: ≥ 4 mM

## O=C(O)CN(CCN(CC(=O)O)CC(=O)O)CC(=O)O [EDTA]
[2]
  inhibitory effects against protease present in pancreatic juice: hardly any inhibitory effects

## CC(=O)N[C@@H](CC(C)C)C(=O)N[C@@H](CC(C)C)C(=O)N[C@H](C=O)CCCNC(=N)N [Leupeptin]
[1]
  protease inhibitory effect (fluorescence = degraded amount of casein): hardly any effect on protease activity
[2]; [5]
  inhibitory effects against protease present in pancreatic juice: hardly any inhibitory effects

## O=S(=O)(F)Cc1ccccc1 [PMSF, phenylmethylsulfonyl fluoride]
[1]
  protease inhibitory effects against protease present in pancreatic juice: high levels of protease inhibitory effects
[2]
  concentration at which high levels of protease inhibitory effects against protease present in pancreatic juice are obtained: ≥ 1 mM

## Cc1ccc(S(=O)(=O)N[C@@H](CCCCN)C(=O)CCl)cc1 [TLCK, N-a-tosyl-L-lysine chloromethyl ketone]
[1]
  protease inhibitory effects against protease present in pancreatic juice: low levels of protease inhibitory effects
[2]; [5]
  inhibitory effects against protease present in pancreatic juice: hardly any inhibitory effects
[3]
  additional inhibitory effects when added to PMSF and AEBSF, compared with PMSF and AEBSF only: additional inhibitory effects were observed

## Cc1ccc(S(=O)(=O)N[C@@H](Cc2ccccc2)C(=O)CCl)cc1 [TPCK, N-a-tosyl-L-phenylalanine chloromethyl ketone]
[1]
  protease inhibitory effects against protease present in pancreatic juice: low levels of protease inhibitory effects
[2]; [5]
  inhibitory effects against protease present in pancreatic juice: slight protease inhibitory effects

## Aprotinin
[1]
  protease inhibitory effect (fluorescence = degraded amount of casein): hardly any effect on protease activity
[2]; [5]
  inhibitory effects against protease present in pancreatic juice: hardly any effects
[4]
  protease inhibitory effects against pancreatin (simulated pancreatic juice): weak protease inhibitory effects
[3]
  additional inhibitory effects when added to PMSF and AEBSF, compared with PMSF and AEBSF only: additional inhibitory effects were not observed

## p-amidinophenylmethane sulfonyl fluoride hydrochloride [p-APMSF]
[1]
  protease inhibitory effects against protease present in pancreatic juice: high levels of protease inhibitory effects
[2]
  concentration at which high levels of protease inhibitory effects against protease present in pancreatic juice are obtained: ≥ 2 mM
